The values that follow come from patent US9834542B2, “LXR modulators” (BRISTOL-MYERS SQUIBB COMPANY, priority 2013, dated 2017).

The target in this experiment is T1, LXRβ (Homo sapiens, UniProt P55055).
T1 construct: Co-transfection expression plasmids, comprising full-length LXRα (pCMX-h LXRα[…] or LXRβ (pCMX-hLXRβ)); expressed in transfected cells; host or cells: CV-1 African Green Monkey Kidney Cells
T1 sequence (P55055 1-460): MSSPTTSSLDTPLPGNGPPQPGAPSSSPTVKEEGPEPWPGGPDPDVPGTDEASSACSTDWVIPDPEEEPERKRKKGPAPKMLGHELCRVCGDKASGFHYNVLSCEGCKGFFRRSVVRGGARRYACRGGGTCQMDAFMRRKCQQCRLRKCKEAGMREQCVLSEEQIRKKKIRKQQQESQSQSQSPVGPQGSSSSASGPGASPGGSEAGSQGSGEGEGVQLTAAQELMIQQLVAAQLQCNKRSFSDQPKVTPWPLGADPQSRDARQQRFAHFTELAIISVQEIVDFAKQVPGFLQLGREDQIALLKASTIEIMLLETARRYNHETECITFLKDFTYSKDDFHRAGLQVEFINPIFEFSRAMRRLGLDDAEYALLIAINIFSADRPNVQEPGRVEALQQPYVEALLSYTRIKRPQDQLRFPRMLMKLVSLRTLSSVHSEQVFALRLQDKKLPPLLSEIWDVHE
T1 sequence (P19793 1-462 partner): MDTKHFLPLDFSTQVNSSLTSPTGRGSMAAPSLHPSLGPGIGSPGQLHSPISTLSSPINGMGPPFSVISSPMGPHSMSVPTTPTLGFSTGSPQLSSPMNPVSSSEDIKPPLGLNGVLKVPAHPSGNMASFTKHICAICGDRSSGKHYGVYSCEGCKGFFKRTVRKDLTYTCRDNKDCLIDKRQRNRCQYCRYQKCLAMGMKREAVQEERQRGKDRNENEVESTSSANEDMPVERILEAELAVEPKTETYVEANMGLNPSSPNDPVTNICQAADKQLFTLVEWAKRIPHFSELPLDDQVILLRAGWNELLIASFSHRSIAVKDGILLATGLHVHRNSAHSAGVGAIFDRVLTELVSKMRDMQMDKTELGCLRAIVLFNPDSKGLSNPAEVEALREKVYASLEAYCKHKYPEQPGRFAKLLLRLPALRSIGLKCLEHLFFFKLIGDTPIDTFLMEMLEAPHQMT
Kind of experiment: Co-transfection assay (LXRE luciferase reporter), LXRβ. It counts as cell-based. The conditions noted are these: for EC50: CV-1 cells transfected with pCMX-hLXRβ and LXREx1-Tk-Luciferase, 20 hours incubation; for Emax: LXRβ co-transfection, relative to high control 1-(2,4-difluorobenzyl)-2-oxo-6-(4-phenoxyphenyl)-4-(trifluoromethyl)-1,2-dihydropyridine-3-carbonitrile, read-out: % Efficacy. In outline:
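Luciferase signal from an LXREx1-Tk reporter was measured after transfected CV-1 cells (full-length hLXRβ, endogenous RXR) were treated with compounds for 20 h at 37 °C, ≤0.5% DMSO. EC50 came from four-parameter fits of 11-point ½-log curves; % efficacy versus a reference agonist maximum.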

Consider `Cc1nc(C(F)(F)F)cn1-c1ccc(-c2cc(F)c(CO)c(S(C)(=O)=O)c2)cc1-c1nc(C(C)C)oc1-c1ccc(OC(F)(F)F)cc1` [Example 560, (3-fluoro-3′-(2-isopropyl-5-(4-(trifluoromethoxy)phenyl)oxazol-4-yl)-4′-(2-methyl-4-(trifluoromethyl)-1H-imidazol-1-yl)-5-(methylsulfonyl)-[1,1′-biphenyl]-4-yl)methanol], for which it took 16 nM to reach a half-maximal effect (EC50) and the Emax worked out at 75%.
In the same order, the values of `COc1ccc(-c2oc(C)nc2-c2cc(-c3cccc(S(C)(=O)=O)c3)ccc2-n2cc(C(F)(F)F)nc2C)cn1` [Example 569, 5-(6-methoxypyridin-3-yl)-2-methyl-4-(4-(2-methyl-4-(trifluoromethyl)-1H-imidazol-1-yl)-3′-(methylsulfonyl)-[1,1′-biphenyl]-3-yl)oxazole] are 214 nM and 90%.
Taken in the same sequence, the figures for `Cc1nc(-c2ccc(OC(F)F)cc2)c(-c2cc(-c3cc(F)c(CO)c(S(C)(=O)=O)c3)ccc2-n2cc(C(F)(F)F)nc2C)o1` [Example 624, (3′-(4-(4-(difluoromethoxy)phenyl)-2-methyloxazol-5-yl)-3-fluoro-4′-(2-methyl-4-(trifluoromethyl)-1H-imidazol-1-yl)-5-(methylsulfonyl)-[1,1′-biphenyl]-4-yl)methanol] were 42 nM and 112%.
For the compound `Cc1nc(-c2cc(-c3cccc(S(C)(=O)=O)c3)ccc2-n2cc(C(F)(F)F)nc2C)c(-c2ccc3ccccc3c2)o1` [Example 436, 2-methyl-4-(4-(2-methyl-4-(trifluoromethyl)-1H-imidazol-1-yl)-3′-(methylsulfonyl)biphenyl-3-yl)-5-(naphthalen-2-yl)oxazole], the response was half-maximal at 76 nM (EC50) and the Emax is 77%.
Taken in the same sequence, the figures for `Cc1nc(C(F)(F)F)cn1-c1ccc(-c2cccc(S(C)(=O)=O)c2)cc1-n1nncc1-c1ccc(OC(F)(F)F)cc1` [Example 49, 1-{3′-(methylsulfonyl)-4-[2-methyl-4-(trifluoromethyl)-1H-imidazol-1-yl]biphenyl-3-yl}-5-{4-[(trifluoromethyl)oxy]phenyl}-1H-1,2,3-triazole] were 164 nM and 105%.
Taken in the same sequence, the figures for `CCc1nc(-c2cc(-c3ccc(CO)c(S(C)(=O)=O)c3)ccc2-n2cc(C(F)(F)F)nc2C)c(-c2ccc(OC(F)(F)F)cc2)o1` [Example 519, (3′-(2-ethyl-5-(4-(trifluoromethoxy)phenyl)oxazol-4-yl)-4′-(2-methyl-4-(trifluoromethyl)-1H-imidazol-1-yl)-3-(methylsulfonyl)-[1,1′-biphenyl]-4-yl)methanol] were 140 nM and 100%.
Taken in the same sequence, the figures for `Cc1nc(C(F)F)c(C)n1-c1ccc(-c2cc(F)c(CO)c(S(C)(=O)=O)c2)cc1-n1nncc1-c1ccc(OC(F)(F)F)cc1` [Example 233, (4′-(4-(difluoromethyl)-2,5-dimethyl-1H-imidazol-1-yl)-3-fluoro-5-(methylsulfonyl)-3′-(5-(4-(trifluoromethoxy)phenyl)-1H-1,2,3-triazol-1-yl)-[1,1′-biphenyl]-4-yl)methanol] were 1340 nM and 92%.
As to `CCS(=O)(=O)c1cccc(-c2ccc(-n3cc(C(F)(F)F)nc3C)c(-n3nncc3C(C)c3ccc(C)cc3)c2)c1` (centres unmarked) [Example 107, 1-{3′-(ethylsulfonyl)-4-[2-methyl-4-(trifluoromethyl)-1H-imidazol-1-yl]biphenyl-3-yl}-5-[1-(4-methylphenyl)ethyl]-1H-1,2,3-triazole], the EC50 is 201 nM and the Emax came out at 83%.
On to `COc1ccc(-c2cnnn2-c2cc(-c3cccc(S(C)(=O)=O)c3)ccc2-n2cc(C(F)(F)F)nc2C)cc1C(F)(F)F` [Example 74, 5-[4-(methyloxy)-3-(trifluoromethyl)phenyl]-1-{3′-(methylsulfonyl)-4-[2-methyl-4-(trifluoromethyl)-1H-imidazol-1-yl]biphenyl-3-yl}-1H-1,2,3-triazole], for which the concentration giving a half-maximal response (EC50) was determined as 488 nM and the Emax was found to be 72%.
For the compound `CCS(=O)(=O)c1cccc(-c2ccc(-n3cc(C(F)F)nc3C)c(-n3nncc3-c3ccc(OC(F)(F)F)cc3)c2)c1` [Example 157, 1-{4-[4-(difluoromethyl)-2-methyl-1H-imidazol-1-yl]-3′-(ethylsulfonyl)biphenyl-3-yl}-5-{4-[(trifluoromethyl)oxy]phenyl}-1H-1,2,3-triazole], the EC50 is 1130 nM and the Emax was determined as 104%.
Regarding `CNS(=O)(=O)c1cccc(-c2ccc(-n3cc(C(C)(F)F)nc3C)c(-n3nncc3-c3ccc(OC(F)(F)F)cc3)c2)c1` [Example 175, 4′-[4-(1,1-difluoroethyl)-2-methyl-1H-imidazol-1-yl]-N-methyl-3′-(5-{4-[(trifluoromethyl)oxy]phenyl}-1H-1,2,3-triazol-1-yl)biphenyl-3-sulfonamide], the 50% effective concentration (EC50) is 315 nM and the Emax is 79%.
In the same order, the values of `CS(=O)(=O)c1cc(-c2ccc(-n3cc(C(F)(F)F)nc3Cl)c(-n3nncc3-c3ccc(Cl)cc3)c2)cc(F)c1CO` [Example 144, {3′-[5-(4-chlorophenyl)-1H-1,2,3-triazol-1-yl]-4′-[2-chloro-4-(trifluoromethyl)-1H-imidazol-1-yl]-3-fluoro-5-(methylsulfonyl)biphenyl-4-yl}methanol] are 110 nM and 98%.
Taken in the same sequence, the figures for `Cc1nc(C(F)(F)F)cn1-c1ccc(-c2cccc(S(C)(=O)=O)c2)cc1-n1nncc1Cc1ccccc1OC(F)(F)F` [Example 123, 1-{3′-(methylsulfonyl)-4-[2-methyl-4-(trifluoromethyl)-1H-imidazol-1-yl]biphenyl-3-yl}-5-({2-[(trifluoromethyl)oxy]phen-yl}methyl)-1H-1,2,3-triazole] were 1100 nM and 36%.
For the compound `Cc1nc(C(N)=O)cn1-c1ccc(-c2cc(F)c(CO)c(S(C)(=O)=O)c2)cc1-c1nc(C2CC2)oc1-c1ccc2c(c1)OC(F)(F)O2` [Example 490, 1-(3-(2-cyclopropyl-5-(2,2-difluorobenzo[d][1,3]dioxol-5-yl)oxazol-4-yl)-3′-fluoro-4′-(hydroxymethyl)-5′-(methylsulfonyl)biphenyl-4-yl)-2-methyl-1H-imidazole-4-carboxamide], the response was half-maximal at 76 nM (EC50) and the Emax stood at 54%.
In the same order, the values of `Cc1nc(C(F)(F)F)cn1-c1ccc(-c2cc(Cl)c(CO)c(S(C)(=O)=O)c2)cc1-n1nncc1Cc1ccc(Cl)cc1` [Example 122, (3-chloro-3′-{5-[(4-chlorophenyl)methyl]-1H-1,2,3-triazol-1-yl}-5-(methylsulfonyl)-4′-[2-methyl-4-(trifluoromethyl)-1H-imidazol-1-yl]biphenyl-4-yl)methanol] are 643 nM and 64%.
On to `Cc1nc(-c2cc(-c3cc(F)c(CO)c(S(C)(=O)=O)c3)ccc2-n2cc(C(F)(F)F)nc2C)c(-c2cc(Cl)cc(Cl)c2)o1` [Example 456, (3′-(5-(3,5-dichlorophenyl)-2-methyloxazol-4-yl)-3-fluoro-4′-(2-methyl-4-(trifluoromethyl)-1H-imidazol-1-yl)-5-(methylsulfonyl)biphenyl-4-yl)methanol], for which a half-maximal effect (EC50) was put at 57 nM and the Emax was found to be 45%.
In the same order, the values of `Cc1nc(C(=O)NCC(F)(F)F)cn1-c1ccc(-c2cccc(S(C)(=O)=O)c2)cc1-n1nncc1-c1ccc(OC(F)(F)F)cc1` [Example 3, 2-methyl-1-[3′-(methylsulfonyl)-3-(5-{4-[(trifluoromethyl)oxy]phenyl}-1H-1,2,3-triazol-1-yl)biphenyl-4-yl]-N-(2,2,2-trifluoroethyl)-1H-imidazole-4-carboxamide] are 1950 nM and 74%.
In the same order, the values of `Cc1nc(-c2cc(-c3cc(F)c(CO)c(S(C)(=O)=O)c3)ccc2-n2cc(C(F)(F)F)nc2C)c(-c2ccc(OC(F)F)c(F)c2)o1` [Example 377] are 48 nM and 77%.
Taken in the same sequence, the figures for `Cc1nc(C(F)(F)F)cn1-c1ccc(-c2ccc(CO)c(S(C)(=O)=O)c2)cc1-c1nc(C(C)C)oc1-c1ccc(OC(F)(F)F)cc1` [Example 521, (3′-(2-isopropyl-5-(4-(trifluoromethoxy)phenyl)oxazol-4-yl)-4′-(2-methyl-4-(trifluoromethyl)-1H-imidazol-1-yl)-3-(methylsulfonyl)-[1,1′-biphenyl]-4-yl)methanol] were 21 nM and 71%.
